Measurements published in PMC10006169, “A phase I trial of LXS196, a protein kinase C (PKC) inhibitor, for metastatic uveal melanoma” (British Journal of Cancer, 2023).

Key:
patients with MUM = experiment: Patient disposition, duration of exposure and dose interruptions; type: in vivo
Experimental: During dose escalation, patients received oral LXS196 either once daily (QD; 100–1000 mg) or twice daily (BID; 200–400 mg) in 28-day cycles until disease progression, intolerable toxicity or withdrawal of consent (Supplementary Fig. 1). Dosing was omitted on the second day of the first cycle (C1D2) to allow for longer post-dose sampling in order to better characterise PK. LXS196 was given on an empty stomach, at least 1 h before or 2 h after a meal. Dose escalation was guided by safety, PK data and a two-parameter Bayesian Logistic Regression Model (BLRM) employing escalation with overdose control (EWOC) criteria. The DLT period lasted 28 days after the first dose of LXS196. […] Upon determination of the MTD/RDE, the expansion part of the study was opened to further evaluate the safety, tolerability, PK and PD of LXS196 at the RDE in patients with MUM. No hypothesis testing was planned in this study, and therefore, no formal sample size calculation was needed. The sample size was selected to ensure the BLRM had adequate operating characteristics when selecting the MTD/RDE.
Routine safety assessments, including laboratory assessments, physical examinations, vital signs and electrocardiograms (ECGs), were conducted at regular intervals throughout the study and more frequently as needed following patient assessment by the treating physician. Adverse events (AEs) were assessed continuously according to the National Cancer Institute Common Terminology Criteria for Adverse Events (NCI-CTCAE) v4.03.

dog = tested on: dog; design: method as in ref 20 = [20]; 20. IDEAYA Biosciences. IDE196 (LXS196, Darovasertib) investigator’s brochure. IDEAYA Biosciences; 2022.; conditions: cited from earlier work
RasGRP3, DUSP6 = experiment: RNAseq gene expression in tumour biopsies; type: in vivo, human
Experimental: Detailed DNA and RNA extraction methods and analysis are described in the supplementary appendix.
RNA libraries were prepared for RNAseq as previously described. Briefly, the total RNA was depleted of ribosomal RNA (rRNA), fragmented, converted to cDNA, and then the next generation sequencing (NGS) library was constructed using the TruSeq RNA v2 Library Preparation Kit (Illumina) with end repair, A-tailing, indexed adaptor ligation and PCR amplification steps. Sequence reads were aligned with STAR [12] to the hg19 human reference genome, and read counts of coding regions were summarised by HTSeq using a reference transcriptome of human Refseq transcripts.

SMILES: CC1(N)CCN(c2cccnc2NC(=O)c2nc(-c3ncccc3C(F)(F)F)cnc2N)CC1 [LXS196]
- Dose interruption by reason: adverse event (patients with MUM; 300 mg BID (RDE) n=18): 3 (16.7) n (%)
- Dose interruption by reason: patient/guardian decision (patients with MUM; 300 mg BID (RDE) n=18): 0 n (%)
- Dose interruption by reason: physician decision (patients with MUM; 300 mg BID (RDE) n=18): 0 n (%)
- With at least one dose interruption (patients with MUM; 300 mg BID (RDE) n=18): 3 (16.7) n (%)
- With more than one dose interruption (patients with MUM; 300 mg BID (RDE) n=18): 1 (5.6) n (%)
- With only one dose interruption (patients with MUM; 300 mg BID (RDE) n=18): 2 (11.1) n (%)
- Dose interruption by reason: adverse event (patients with MUM; All BID n=30): 5 (16.7) n (%)
- Dose interruption by reason: patient/guardian decision (patients with MUM; All BID n=30): 1 (3.3) n (%)
- Dose interruption by reason: physician decision (patients with MUM; All BID n=30): 0 n (%)
- With at least one dose interruption (patients with MUM; All BID n=30): 6 (20) n (%)
- With more than one dose interruption (patients with MUM; All BID n=30): 3 (10.0) n (%)
- With only one dose interruption (patients with MUM; All BID n=30): 3 (10) n (%)
- Dose interruption by reason: adverse event (patients with MUM; All QD n=38): 11 (28.9) n (%)
- Dose interruption by reason: patient/guardian decision (patients with MUM; All QD n=38): 0 n (%)
- Dose interruption by reason: physician decision (patients with MUM; All QD n=38): 1 (2.6) n (%)
- With at least one dose interruption (patients with MUM; All QD n=38): 11 (28.9) n (%)
- With more than one dose interruption (patients with MUM; All QD n=38): 5 (13.2) n (%)
- With only one dose interruption (patients with MUM; All QD n=38): 6 (15.8) n (%)
- Dose interruption by reason: adverse event (patients with MUM; All patients N=68): 16 (23.5) n (%)
- Dose interruption by reason: patient/guardian decision (patients with MUM; All patients N=68): 1 (1.5) n (%)
- Dose interruption by reason: physician decision (patients with MUM; All patients N=68): 1 (1.5) n (%)
- With at least one dose interruption (patients with MUM; All patients N=68): 17 (25) n (%)
- With more than one dose interruption (patients with MUM; All patients N=68): 8 (11.8) n (%)
- With only one dose interruption (patients with MUM; All patients N=68): 9 (13.2) n (%)
- Reversibility of findings (dog; 4-week recovery phase): partial to complete reversibility
- Potential target organ (dog; 4-week toxicology study, dog): GI tract
- Potential toxicity (dog; single-dose and 4-week repeated dose, dog): decrease in systolic blood pressure
- MAPK pathway activity as measured by DUSP6 expression (RasGRP3, DUSP6): trend towards suppression in the PR group
- RasGRP3 expression on treatment (RasGRP3, DUSP6; C1D15, QD and BID): decreased in some patients
